Measured values: US20240208969A1, “SUBSTITUTED FUSED BICYCLIC COMPOUNDS AS PARP INHIBITORS AND THE USE THEREOF” (IMPACT THERAPEUTICS (SHANGHAI), INC., priority 2021, published 2024)

What was measured:
PARP2 = PARP2 (Homo sapiens, UniProt Q9UGN5); assay: PARP2 chemiluminescent assay; assay type: biochemical; conditions: recombinant PARP2 enzyme activity, chemiluminescence
Description: (§1) Mix the solution of recombinant poly ADP ribotransferase 1 and 2 (PARP1 and PARP2) (40 ng enzyme/well) and the compounds to be tested, respectively. And then added to a 96-well plate coated with […] mixture, incubated at room temperature for 1 h. Then add 50 μL 0.3 ng/mL Streptavidin-HRP to each well. The plates were incubated for 30 minutes at room temperature. Finally, the plates were treated with streptavidin-HRP followed by addition of the ELISA ECL substrate to produce chemiluminescence that can then be measured using a chemiluminescence reader. The inhibition rate of the compound to PARP1/2 enzyme activity was calculated according to the following formula. [formula] IC50 value is obtained by fitting the s-shaped dose response curve equation by using XL Fit software. The curve equation is Y=100/(1+10^(log C−log IC50)), C is the compound concentration. Table 1 summarizes the inhibitory effects of compounds on PARP1 and PARP2 enzyme activity (IC50), wherein +++++ indicates IC50≤1 nM; ++++ indicates 1<IC50≤10 nM; +++ indicates 10 nM<IC50≤100 nM: ++ indicates 100 nM<IC50≤1 μM; + indicates IC50>1 μM.

MDA-MB-436 cells = assay: Inhibition of proliferation of human breast cancer MDA-MB-436 cell line (CCK-8, 7 days); assay type: cell-based; conditions: proliferation of MDA-MB-436, 7 days
Outline: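 Cells seeded at 3000/well were treated next day with 8 serial doses (DMSO control) for 7 days at 37° C., 5% CO2, with compound medium changed on day four. CCK-8 was added for 4 hours and OD read as 450 nm minus 650 nm. IC50 came from a sigmoidal fit of survival relative to DMSO.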

PARP1 = PARP1 (Homo sapiens, UniProt P09874); assay: PARP1 chemiluminescent assay; assay type: biochemical; conditions: recombinant PARP1 enzyme activity, chemiluminescence
Description: as §1

Chain of PARP1 (P09874 whole entry): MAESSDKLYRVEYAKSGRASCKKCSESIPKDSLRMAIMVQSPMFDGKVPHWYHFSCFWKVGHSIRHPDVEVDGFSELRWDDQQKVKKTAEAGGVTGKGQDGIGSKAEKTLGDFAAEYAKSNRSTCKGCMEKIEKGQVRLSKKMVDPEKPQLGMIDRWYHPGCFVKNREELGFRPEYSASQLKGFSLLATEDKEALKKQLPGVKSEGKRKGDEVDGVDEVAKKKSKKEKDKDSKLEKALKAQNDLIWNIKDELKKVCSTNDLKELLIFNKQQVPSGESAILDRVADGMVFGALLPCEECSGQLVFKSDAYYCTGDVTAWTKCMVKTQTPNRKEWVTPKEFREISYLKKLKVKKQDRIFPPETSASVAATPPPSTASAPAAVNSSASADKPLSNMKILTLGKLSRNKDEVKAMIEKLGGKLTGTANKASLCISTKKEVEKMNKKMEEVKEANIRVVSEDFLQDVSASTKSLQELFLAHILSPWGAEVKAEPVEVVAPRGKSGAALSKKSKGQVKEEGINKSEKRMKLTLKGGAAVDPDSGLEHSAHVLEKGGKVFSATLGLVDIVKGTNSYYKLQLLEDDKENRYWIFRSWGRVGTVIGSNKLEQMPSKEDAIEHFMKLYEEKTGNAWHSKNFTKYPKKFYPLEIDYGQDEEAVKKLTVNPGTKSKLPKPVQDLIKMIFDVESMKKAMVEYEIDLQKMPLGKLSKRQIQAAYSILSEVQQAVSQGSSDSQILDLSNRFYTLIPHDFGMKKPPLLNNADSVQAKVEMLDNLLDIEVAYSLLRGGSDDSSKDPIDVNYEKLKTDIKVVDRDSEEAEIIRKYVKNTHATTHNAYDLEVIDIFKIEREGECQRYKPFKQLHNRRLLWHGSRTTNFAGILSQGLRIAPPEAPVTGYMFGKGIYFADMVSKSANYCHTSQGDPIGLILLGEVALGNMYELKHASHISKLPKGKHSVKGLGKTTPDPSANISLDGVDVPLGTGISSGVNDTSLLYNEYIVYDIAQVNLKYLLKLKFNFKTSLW
Chain of PARP2 (Q9UGN5 whole entry, species assumed): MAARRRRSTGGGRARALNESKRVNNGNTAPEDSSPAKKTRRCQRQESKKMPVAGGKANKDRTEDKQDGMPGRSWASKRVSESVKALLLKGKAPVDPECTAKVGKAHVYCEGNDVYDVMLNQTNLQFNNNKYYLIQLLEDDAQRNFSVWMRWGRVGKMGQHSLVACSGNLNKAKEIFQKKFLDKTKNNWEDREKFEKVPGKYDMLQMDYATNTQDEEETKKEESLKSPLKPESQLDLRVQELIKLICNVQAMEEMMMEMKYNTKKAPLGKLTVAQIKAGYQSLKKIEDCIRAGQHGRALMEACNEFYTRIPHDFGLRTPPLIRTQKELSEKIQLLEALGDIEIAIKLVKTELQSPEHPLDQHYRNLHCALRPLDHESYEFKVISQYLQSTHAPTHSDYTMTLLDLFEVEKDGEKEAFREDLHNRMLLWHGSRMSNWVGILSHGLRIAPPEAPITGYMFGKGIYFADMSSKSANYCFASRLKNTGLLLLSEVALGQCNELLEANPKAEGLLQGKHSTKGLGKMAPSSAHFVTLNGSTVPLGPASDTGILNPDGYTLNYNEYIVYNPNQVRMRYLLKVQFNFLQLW

Row | IC50 (PARP2) [nM] | IC50 (MDA-MB-436 cells; Homo sapiens, 168 h) [µM] | IC50 (PARP1) [nM] | IC50 (MDA-MB-436 cells) [µM] | SMILES
1 | > 1000 | 0.001 to 0.01 | 1 to 10 | – | CCNC(=O)c1ccc(N2CCN(Cc3ccc4c(c3)NC(=O)N(CC)C4)CC2)c(C)n1 [Example 117, 5-(4-((3-ethyl-2-oxo-1,2,3,4-tetrahydroquinazolin-7-yl)methyl)piperazin-1-yl)-6-methyl-N-ethylpicolinamide]
2 | > 1000 | 0.001 to 0.01 | 1 to 10 | – | CCN1Cc2c(F)cc(CN3CCN(c4ccc(C(=O)NC)nc4C)CC3)cc2NC1=O [Example 119, 5-(4-((3-ethyl-5-fluoro-2-oxo-1,2,3,4-tetrahydroquinazolin-7-yl)methyl)piperazin-1-yl)-N,6-dimethylpicolinamide]
3 | 100 to 1000 | 0.001 to 0.01 | 1 to 10 | – | CCn1c(=O)[nH]c2cc(CN3CCN(c4ccc(C(=O)NC5CC5)nc4F)CC3)ccc2c1=O [Example 135, N-cyclopropyl-5-(4-((3-ethyl-2,4-dioxo-1,2,3,4-tetrahydroquinazolin-7-yl)methyl)piperazin-1-yl)-6-fluoropicolinamide]
4 | 1 to 10 | – | 1 to 10 | 0.001 to 0.01 | O=C(c1cc(Cn2c(=O)[nH]c(=O)c3c(F)cccc32)ccc1F)N1CCN(c2ncccn2)CC1 [Senaparib, reference compound]
